# According to patent US20260216109A1, “TREATMENT OF SKIN DISORDERS WITH SHORT CHAIN FATTY ACIDS” (Temple University-Of The Commonwealth System of Higher …, priority 2023, published 2026):
# Key:
# IL-17A = test: Multiplex (MSD V-PLEX) cytokine release, InflammaSkin: IL-17A; format: cell-based, human; conditions: Example 1; Day 7 supernatant; 1 μM Otezla or SCFA (45 μg/mL Ca-propionate + 1 mM Ca-/Mg-butyrate) systemic, 0.05% Betamethasone topical; vs untreated InflammaSkin
# Protocol: (§1) A total of 16 biopsies of 15 mm diameter were produced from a single donor. Two NativeSkin® models with 12/15 mm silicon rings were produced from the biopsies according to standard procedures in place, and cultured under cell culture conditions (37° C., 5% CO2, max. humidity) for 7 days with 2 mL of standard NativeSkin® medium renewed every day. Fourteen PSO-InflammaSkin® models with 12/15 mm silicon rings were produced by inducing in situ activation and Th17/Th1 polarization of skin resident T cells with a proprietary cocktail, and cultured under cell culture conditions (37° C., 5% CO2, max. humidity) for 7 days with 2 mL of PSO-InflammaSkin® culture medium renewed every day.
# (§2) From Day 1 to Day 6, models were systemically treated with 1 μM Otezla or Short Chain Fatty Acids (SCFAs), or topically treated with positive control 0.05% Betamethasone
# (§3) In these experiments, the SCFAs administered were 45 μg/mL of Ca-propionate and 1 mM mixture of salts (Ca-butyrate and Mg-butyrate).
# At Day 7, supernatants were collected and stored at −80° C. and skin models of all conditions were carefully unmolded. […]
# Human pro-inflammatory cytokines released in the supernatant were quantified using the V-PLEX Human IL-17A Kit (MesoScale Discovery, reference: K151RFD-1) and V-PLEX Human TNFα Kit (MesoScale Discovery, reference: K151QWD-1). […]
# (§4) Human pro-inflammatory cytokines released in the supernatant were quantified using the V-PLEX Human IL-17A Kit (MesoScale Discovery, reference: K151RFD-1) and V-PLEX Human custom Pro-inflammatory. […]
# (§5) Samples were diluted four times for plate 2 and two times for plate 1. Samples and standards were assessed in duplicate. Plates were read on MesoScale Discovery Quickpleax SQ 120 plate reader and values expressed in pg/mL.
# (§6) A statistical analysis was performed. […] First, the distribution's normality of the two compared group was assessed. […] If the two distributions were normal, the homogeneity of variances was assessed using a Fisher test on the variances. […]
# TNF-α = test: Multiplex (MSD V-PLEX) cytokine release, InflammaSkin: TNF-α; format: cell-based, human; conditions: Example 1; Day 7 supernatant; SCFA (45 μg/mL Ca-propionate + 1 mM Ca-/Mg-butyrate) systemic, 0.05% Betamethasone topical; vs untreated InflammaSkin
# Protocol: as §1, §2, §3
# At Day 7, supernatants were collected and stored at −80° C. and skin models of all conditions were carefully unmolded. Skin biopsies were re-punched to eliminate the area under the silicon ring, fixed in 10% buffered formalin and processed for paraffin wax embedding.
# Human pro-inflammatory cytokines released in the supernatant were quantified using the V-PLEX Human IL-17A Kit (MesoScale Discovery, reference: K151RFD-1) and V-PLEX Human TNFα Kit (MesoScale Discovery, reference: K151QWD-1). Values are expressed in pg/mL. For each condition, single values, mean and SEM were plotted using GraphPad Prism. Statistical analysis was performed using a One Way ANOVA test.
# PSO-InflammaSkin® models were cultured and treated as described in Example 1. In these experiments, the SCFAs administered were 45 μg/mL of Ca-propionate and 1 mM mixture of salts (Ca-butyrate and Mg-butyrate).
# Human pro-inflammatory cytokines released in the supernatant were quantified using the V-PLEX Human IL-17A Kit (MesoScale Discovery, reference: K151RFD-1) and V-PLEX Human custom Pro-inflammatory. Plate 1 comprised Proinflammatory Panel 1 (human) kit reference K15049 (panel IFN-γ and TNF-α). Plate 2 comprised TH17 Panel 1 (human) kit reference K15049 (panel IL-17A Gen B, IL-21, IL-22, IL-23, IL-27, IL-31, MIP-3α).
# as §5
# A statistical analysis was performed. Each condition was compared to the untreated InflammaSkin® condition. First, the distribution's normality of the two compared group was assessed. […] If the two distributions were normal, the homogeneity of variances was assessed using a Fisher test on the variances. […]
# IL-27 = test: Multiplex (MSD V-PLEX) cytokine release, InflammaSkin: IL-27; format: cell-based, human; conditions: Example 2; 0.05% Betamethasone topical; vs untreated InflammaSkin
# Protocol: A total of 16 biopsies of 15 mm diameter were produced from a single donor. Two NativeSkin® models with 12/15 mm silicon rings were produced from the biopsies according to standard procedures in place, and cultured under cell culture conditions (37° C., 5% CO2, max. humidity) for 7 days with 2 mL of standard NativeSkin® medium renewed every day. Fourteen PSO-InflammaSkin® models with 12/15 mm silicon rings were produced by inducing in situ activation and Th17/Th1 polarization of skin resident T cells with a proprietary cocktail, and cultured under cell culture conditions (37° C., 5% CO2, max. humidity) for 7 days with 2 mL of PSO-InflammaSkin® culture medium renewed every day. […]
# as §4, §5, §6
# [1] = tested on: imiquimod (IMQ)-induced psoriasis model mice; test: Transepidermal water loss (TEWL) on back skin, IMQ-induced psoriasis model in mice; format: in vivo, mouse; conditions: Example 4, day 5, Apremilast 25 mg/kg BID p.o., SCFA fixed dose BID p.o., Etanercept 10 mg/kg Q3D s.c.
# Protocol: Topical application of IMQ, a TLR7/8 ligand and potent immune activator induced and exacerbated psoriasis in mice. The mouse IMQ-induced psoriasis (IMQ Ps) model was initiated by a repeated topical application of Aldara© cream (containing 5% IMQ) over 6 consecutive days. Female Balb/c mice (9 weeks of age at reception, ordered with 20 g, Charles River, Sulzfeld, Germany; n=10 mice/group, exception healthy controls n=4) received daily a topical application of 62.5 mg of commercially available IMQ cream (5% Aldara©) on the beforehand (day −1) shaved (~2 cm×3 cm), depilated (Pilka© cream) back skin, and 7 mg on the outer right ear skin for 6 consecutive days, translating in a daily dose of approximately 3.5 mg IMQ. Healthy control mice were included in the study and were treated with vehicle cream (Vaseline; Bombastus-Werke AG) only instead of IMQ. Additionally, an IMQ disease control group was also included.
# Physiological parameter transepidermal water loss (TEWL; in g/m^2/h) was tested and evaluated on back skin at day 5 by a Tewameter (TM300, Courage and Khazaka, Cologne, Germany) during the IMQ psoriasis experiment. TEWL is a common examined parameters for the assessment of a disturbed skin function present in psoriatic skin. TEWL may be used a diagnostic marker in the clinics to accurately assess the disease severity in psoriasis.
Molecule,IL-17A levels decreased by (IL-17A),TNF-α levels decreased by (TNF-α),increase of IL-27 cytokine secretion (IL-27),transepidermal water loss (TEWL) [1]
C[C@H]1C[C@H]2[C@@H]3CCC4=CC(=O)C=C[C@]4(C)[C@@]3(F)[C@@H](O)C[C@]2(C)[C@@]1(O)C(=O)CO [Betamethasone],about 70%,~ 40%,about 30%,
Etanercept,,,,did not show significant effects
